Experiments:
PDAC cell lines = assay: Autophagic flux, mCherry-EGFP-LC3B autophagy reporter (flow cytometry, confocal imaging); format: cell-based; conditions: panel of PDAC cell lines, 24-hours treatment
Description: Autophagic flux was determined using flow cytometry. […] Live cell imaging was performed using confocal microscopy. FIG. 1D indicates the threshold of fluorescent intensity was set to include puncta and exclude cytosolic green and background fluorescence. Green and red puncta were quantified from FIG. 1C and plotted.

PDAC cells = assay: Vacuole formation on apilimod treatment; format: cell-based; conditions: FIG. 3A
Source text: Cells were fixed and stained with EEA1 and LAMP1 antibodies and analyzed with confocal microscopy.

O=C(NOC[C@H](O)CO)c1ccc(F)c(F)c1Nc1ccc(I)cc1F (single isomer, unassigned) [mirdametinib]
autophagic flux (PDAC cell lines): substantially induced autophagic flux

Cc1cccc(/C=N/Nc2cc(N3CCOCC3)nc(OCCc3ccccn3)n2)c1 [apilimod]
vacuole formation (PDAC cells): dose-dependent vacuole formation

— US20230293464A1, “TREATMENT OF PANCREATIC DUCTAL ADENOCARCINOMA WITH MIRDAMETINIB” (SpringWorks Therapeutics Inc., priority 2022, published 2023)
